Reference: PubChem BioAssay AID1918998 (Molecular Pharmacology Branch, DTP, NCI, 2023)

System: 521955-158-R2-J5-PDC complex spheroid growth
Experiment: Anticancer human tumor 521955-158-R2-J5-PDC patient-derived pancreatic carcinoma cell line growth inhibition [AhR]
Conditions: for IC50: curve of first compound; for viability, T/C: stronger effect = lower value
How it was run: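 Agents were dosed in half-log steps down from roughly clinical Cmax, or from 10 microM where Cmax was unknown, alone and with AhR antagonists. Read-out: percent test/control growth of tumor spheroids containing HUVEC and MSC stromal cells.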

[1] = second compound 0.1 µM, first compound 0.0316 µM
[2] = second compound 0.1 µM, first compound 0.1 µM
[3] = second compound 0.1 µM, first compound 0.316 µM
[4] = second compound 0.1 µM, first compound 1 µM
[5] = second compound 0.1 µM, first compound 3.16 µM
[6] = second compound 0.1 µM, first compound 10 µM
[7] = second compound 0.316 µM, first compound 0.0316 µM
[8] = second compound 0.316 µM, first compound 0.1 µM
[9] = second compound 0.316 µM, first compound 0.316 µM
[10] = second compound 0.316 µM, first compound 1 µM
[11] = second compound 0.316 µM, first compound 3.16 µM
[12] = second compound 0.316 µM, first compound 10 µM
[13] = second compound 1 µM, first compound 0.0316 µM
[14] = second compound 1 µM, first compound 0.1 µM
[15] = second compound 1 µM, first compound 0.316 µM
[16] = second compound 1 µM, first compound 1 µM
[17] = second compound 1 µM, first compound 3.16 µM
[18] = second compound 1 µM, first compound 10 µM
[19] = second compound 3.16 µM, first compound 0.0316 µM
[20] = second compound 3.16 µM, first compound 0.1 µM
[21] = second compound 3.16 µM, first compound 0.316 µM
[22] = second compound 3.16 µM, first compound 1 µM
[23] = second compound 3.16 µM, first compound 3.16 µM
[24] = second compound 3.16 µM, first compound 10 µM
[25] = second compound 10 µM, first compound 0.0316 µM
[26] = second compound 10 µM, first compound 0.1 µM
[27] = second compound 10 µM, first compound 0.316 µM
[28] = second compound 10 µM, first compound 1 µM
[29] = second compound 10 µM, first compound 3.16 µM
[30] = second compound 10 µM, first compound 10 µM
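Wherever viability, T/C is given: spheroids mix tumor cells with HUVEC endothelium and human MSC stroma; luminescence taken as viability surrogate after a week of drug exposure.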

CC(C)c1c(-c2ccccc2)nc2c(C#N)c[nH]n2c1=O + CC(CO)NC(=O)c1cc(-c2ccc(Cl)cc2)nn(-c2cnn(C)c2)c1=O
IC50 (second compound 0.1 µM): > 10000 nM
IC50 (second compound 0.316 µM): > 10000 nM
IC50 (second compound 1 µM): > 10000 nM
IC50 (second compound 3.16 µM): > 10000 nM
IC50 (second compound 10 µM): > 10000 nM
viability, T/C [1]: 91%
viability, T/C [2]: 83.6%
viability, T/C [3]: 89.4%
viability, T/C [4]: 91.4%
viability, T/C [5]: 66.3%
viability, T/C [6]: 78.2%
viability, T/C [7]: 80.1%
viability, T/C [8]: 103%
viability, T/C [9]: 75.7%
viability, T/C [10]: 86.1%
viability, T/C [11]: 73.3%
viability, T/C [12]: 88.5%
viability, T/C [13]: 82.1%
viability, T/C [14]: 89.4%
viability, T/C [15]: 93.5%
viability, T/C [16]: 94.2%
viability, T/C [17]: 70.7%
viability, T/C [18]: 51.9%
viability, T/C [19]: 98.5%
viability, T/C [20]: 93.7%
viability, T/C [21]: 97%
viability, T/C [22]: 96.5%
viability, T/C [23]: 72%
viability, T/C [24]: 70%
viability, T/C [25]: 84.5%
viability, T/C [26]: 81.2%
viability, T/C [27]: 86.4%
viability, T/C [28]: 71.8%
viability, T/C [29]: 54.6%
viability, T/C [30]: 54.7%

CC1COCCN1c1cc(-c2ccnn2C)c2ccnc(-c3ccn[nH]3)c2n1 (stereo not given) + CC(CO)NC(=O)c1cc(-c2ccc(Cl)cc2)nn(-c2cnn(C)c2)c1=O
IC50 (second compound 0.1 µM): 88.1 nM
IC50 (second compound 0.316 µM): 106 nM
IC50 (second compound 1 µM): 81.3 nM
IC50 (second compound 3.16 µM): 67.7 nM
IC50 (second compound 10 µM): 37.8 nM
viability, T/C (second compound 0.1 µM, first compound 0.00316 µM): 91.6%
viability, T/C (second compound 0.1 µM, first compound 0.01 µM): 121%
viability, T/C [1]: 98.3%
viability, T/C [2]: 44.3%
viability, T/C [3]: 11.2%
viability, T/C [4]: 14.6%
viability, T/C (second compound 0.316 µM, first compound 0.00316 µM): 141%
viability, T/C (second compound 0.316 µM, first compound 0.01 µM): 126%
viability, T/C [7]: 110%
viability, T/C [8]: 54.5%
viability, T/C [9]: 8.67%
viability, T/C [10]: 13.1%
viability, T/C (second compound 1 µM, first compound 0.00316 µM): 93%
viability, T/C (second compound 1 µM, first compound 0.01 µM): 115%
viability, T/C [13]: 120%
viability, T/C [14]: 37%
viability, T/C [15]: 8.65%
viability, T/C [16]: 13.6%
viability, T/C (second compound 3.16 µM, first compound 0.00316 µM): 115%
viability, T/C (second compound 3.16 µM, first compound 0.01 µM): 102%
viability, T/C [19]: 94.4%
viability, T/C [20]: 27.6%
viability, T/C [21]: 8.07%
viability, T/C [22]: 12.1%
viability, T/C (second compound 10 µM, first compound 0.00316 µM): 93.5%
viability, T/C (second compound 10 µM, first compound 0.01 µM): 89.5%
viability, T/C [25]: 55.8%
viability, T/C [26]: 17.8%
viability, T/C [27]: 7.29%
viability, T/C [28]: 12.2%

COc1ccc([C@@H](O)c2cc(-c3ncnc4cc(N5CCOCC5)ccc34)c(F)cc2Cl)nn1 + CC(CO)NC(=O)c1cc(-c2ccc(Cl)cc2)nn(-c2cnn(C)c2)c1=O
IC50 (second compound 0.1 µM): > 10000 nM
IC50 (second compound 0.316 µM): 3860 nM
IC50 (second compound 1 µM): 5970 nM
IC50 (second compound 3.16 µM): 2970 nM
IC50 (second compound 10 µM): 1900 nM
viability, T/C [1]: 94.8%
viability, T/C [2]: 90.2%
viability, T/C [3]: 95.7%
viability, T/C [4]: 89.7%
viability, T/C [5]: 61.2%
viability, T/C [6]: 50.9%
viability, T/C [7]: 82.4%
viability, T/C [8]: 98.9%
viability, T/C [9]: 99.9%
viability, T/C [10]: 83%
viability, T/C [11]: 52.3%
viability, T/C [12]: 41.5%
viability, T/C [13]: 114%
viability, T/C [14]: 101%
viability, T/C [15]: 96.7%
viability, T/C [16]: 79.3%
viability, T/C [17]: 61.7%
viability, T/C [18]: 40.3%
viability, T/C [19]: 104%
viability, T/C [20]: 86.2%
viability, T/C [21]: 116%
viability, T/C [22]: 73%
viability, T/C [23]: 54.6%
viability, T/C [24]: 42.7%
viability, T/C [25]: 87.7%
viability, T/C [26]: 88.9%
viability, T/C [27]: 79.3%
viability, T/C [28]: 57.9%
viability, T/C [29]: 44.8%
viability, T/C [30]: 35.5%

O=C(C=Cn1cnc(-c2cc(C(F)(F)F)cc(C(F)(F)F)c2)n1)NNc1cnccn1 + CC(CO)NC(=O)c1cc(-c2ccc(Cl)cc2)nn(-c2cnn(C)c2)c1=O
IC50 (second compound 0.1 µM): 81.6 nM
IC50 (second compound 0.316 µM): 29.4 nM
IC50 (second compound 1 µM): 23.3 nM
IC50 (second compound 3.16 µM): 21.8 nM
IC50 (second compound 10 µM): 12.5 nM
viability, T/C (second compound 0.1 µM, first compound 0.00949 µM): 59.2%
viability, T/C (second compound 0.1 µM, first compound 0.03 µM): 58.6%
viability, T/C (second compound 0.1 µM, first compound 0.0949 µM): 42.9%
viability, T/C (second compound 0.1 µM, first compound 0.3 µM): 45.7%
viability, T/C (second compound 0.1 µM, first compound 0.949 µM): 39.4%
viability, T/C (second compound 0.1 µM, first compound 3 µM): 29.1%
viability, T/C (second compound 0.316 µM, first compound 0.00949 µM): 85.6%
viability, T/C (second compound 0.316 µM, first compound 0.03 µM): 44.6%
viability, T/C (second compound 0.316 µM, first compound 0.0949 µM): 43.8%
viability, T/C (second compound 0.316 µM, first compound 0.3 µM): 38%
viability, T/C (second compound 0.316 µM, first compound 0.949 µM): 37.7%
viability, T/C (second compound 0.316 µM, first compound 3 µM): 23.9%
viability, T/C (second compound 1 µM, first compound 0.00949 µM): 62.8%
viability, T/C (second compound 1 µM, first compound 0.03 µM): 40.3%
viability, T/C (second compound 1 µM, first compound 0.0949 µM): 38.9%
viability, T/C (second compound 1 µM, first compound 0.3 µM): 38.8%
viability, T/C (second compound 1 µM, first compound 0.949 µM): 34.6%
viability, T/C (second compound 1 µM, first compound 3 µM): 21.7%
viability, T/C (second compound 3.16 µM, first compound 0.00949 µM): 58.9%
viability, T/C (second compound 3.16 µM, first compound 0.03 µM): 38.7%
viability, T/C (second compound 3.16 µM, first compound 0.0949 µM): 50.4%
viability, T/C (second compound 3.16 µM, first compound 0.3 µM): 29.4%
viability, T/C (second compound 3.16 µM, first compound 0.949 µM): 27.6%
viability, T/C (second compound 3.16 µM, first compound 3 µM): 25.6%
viability, T/C (second compound 10 µM, first compound 0.00949 µM): 52.7%
viability, T/C (second compound 10 µM, first compound 0.03 µM): 42.1%
viability, T/C (second compound 10 µM, first compound 0.0949 µM): 27.5%
viability, T/C (second compound 10 µM, first compound 0.3 µM): 26.7%
viability, T/C (second compound 10 µM, first compound 0.949 µM): 22.4%
viability, T/C (second compound 10 µM, first compound 3 µM): 17.7%
